Measured values: US20230346952A1, “CANNABINOID GLYCOSIDE PRODRUGS AND METHODS OF SYNTHESIS” (priority 2015, published 2023)
Read-outs that look alike come from different tables or passages of the source.

Columns and labels:
[1] = target: safety screen panel of human pharmacological targets (Homo sapiens, UniProt Q12809)
[2] = tested on: safety screen panel of human pharmacological targets
[3] = 1,000 mg/kg mixed glycosides by oral gavage; 6 hours; HPLC
[4] = target: T1, safety screen panel of human pharmacological targets (Homo sapiens, UniProt P10275); test: biochemical; conditions: read-out: percent inhibition: AR (h) (agonist radioligand)
T1 sequence (P10275 1-920): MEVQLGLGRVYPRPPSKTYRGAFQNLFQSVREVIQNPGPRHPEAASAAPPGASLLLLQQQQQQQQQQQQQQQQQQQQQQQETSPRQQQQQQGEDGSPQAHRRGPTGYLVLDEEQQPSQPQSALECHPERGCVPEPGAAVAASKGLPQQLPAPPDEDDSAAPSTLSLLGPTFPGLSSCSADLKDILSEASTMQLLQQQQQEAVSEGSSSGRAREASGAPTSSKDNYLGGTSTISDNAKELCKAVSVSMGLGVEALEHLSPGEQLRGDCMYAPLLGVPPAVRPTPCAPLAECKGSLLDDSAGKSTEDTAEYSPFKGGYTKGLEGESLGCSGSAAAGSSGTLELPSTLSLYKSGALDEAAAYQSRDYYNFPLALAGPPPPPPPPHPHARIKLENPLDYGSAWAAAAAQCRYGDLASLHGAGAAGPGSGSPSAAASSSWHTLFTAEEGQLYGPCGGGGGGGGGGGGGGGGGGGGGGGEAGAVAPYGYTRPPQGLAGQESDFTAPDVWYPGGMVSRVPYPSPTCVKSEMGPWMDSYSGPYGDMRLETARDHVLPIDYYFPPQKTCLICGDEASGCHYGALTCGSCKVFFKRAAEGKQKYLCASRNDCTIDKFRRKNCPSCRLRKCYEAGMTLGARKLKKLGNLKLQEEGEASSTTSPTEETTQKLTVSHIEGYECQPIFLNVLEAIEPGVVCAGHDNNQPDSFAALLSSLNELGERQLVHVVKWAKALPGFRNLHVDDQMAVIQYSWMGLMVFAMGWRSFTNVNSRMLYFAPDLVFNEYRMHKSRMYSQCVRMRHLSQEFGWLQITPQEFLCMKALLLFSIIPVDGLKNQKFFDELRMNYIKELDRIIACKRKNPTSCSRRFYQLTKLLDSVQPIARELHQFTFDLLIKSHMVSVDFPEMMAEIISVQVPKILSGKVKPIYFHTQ

[5] = target: T2, safety screen panel of human pharmacological targets (Homo sapiens, UniProt P25101); test: biochemical; conditions: read-out: percent inhibition: ETA (h) (agonist radioligand)
T2 sequence (P25101 21-427): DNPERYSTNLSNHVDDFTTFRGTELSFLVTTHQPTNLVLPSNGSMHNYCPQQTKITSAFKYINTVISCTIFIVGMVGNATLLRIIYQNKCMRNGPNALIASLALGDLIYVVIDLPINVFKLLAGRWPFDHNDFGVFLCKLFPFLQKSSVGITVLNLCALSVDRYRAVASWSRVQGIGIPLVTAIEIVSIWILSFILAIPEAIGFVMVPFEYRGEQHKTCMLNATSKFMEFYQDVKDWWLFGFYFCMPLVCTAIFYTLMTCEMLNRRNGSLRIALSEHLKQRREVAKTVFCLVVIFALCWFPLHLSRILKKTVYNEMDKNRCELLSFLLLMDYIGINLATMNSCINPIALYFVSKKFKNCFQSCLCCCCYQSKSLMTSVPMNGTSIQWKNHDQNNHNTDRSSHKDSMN

[6] = target: T3, safety screen panel of human pharmacological targets (Homo sapiens, UniProt P32238); test: biochemical; conditions: read-out: percent inhibition: CCK1 (CCKA) (h) (agonist radioligand)
T3 sequence (P32238 1-428): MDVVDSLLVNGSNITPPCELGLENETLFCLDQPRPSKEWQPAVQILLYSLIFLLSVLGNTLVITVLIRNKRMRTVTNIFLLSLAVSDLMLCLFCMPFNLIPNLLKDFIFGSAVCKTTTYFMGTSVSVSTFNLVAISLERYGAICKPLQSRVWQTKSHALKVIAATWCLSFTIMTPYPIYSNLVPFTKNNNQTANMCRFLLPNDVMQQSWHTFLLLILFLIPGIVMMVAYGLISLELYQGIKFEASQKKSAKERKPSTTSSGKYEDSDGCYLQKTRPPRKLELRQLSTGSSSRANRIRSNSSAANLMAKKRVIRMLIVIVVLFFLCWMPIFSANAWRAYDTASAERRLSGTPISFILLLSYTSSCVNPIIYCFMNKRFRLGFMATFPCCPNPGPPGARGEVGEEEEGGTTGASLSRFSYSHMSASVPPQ

[7] = target: safety screen panel of human pharmacological targets (Homo sapiens, UniProt P07550); test: biochemical; conditions: read-out: percent inhibition: beta 2 (h) (antagonist radioligand)
[8] = target: safety screen panel of human pharmacological targets (Homo sapiens, UniProt P29274); test: biochemical; conditions: read-out: percent inhibition: A2A (h) (agonist radioligand)
[9] = target: safety screen panel of human pharmacological targets (Homo sapiens, UniProt P23975); test: biochemical; conditions: read-out: percent inhibition: norepinephrine transporter (h) (antagonist radioligand)
[10] = target: safety screen panel of human pharmacological targets (Homo sapiens, UniProt P37288); test: biochemical; conditions: read-out: percent inhibition: V1a (h) (agonist radioligand)
[11] = target: safety screen panel of human pharmacological targets (Homo sapiens, UniProt P35367); test: biochemical; conditions: read-out: percent inhibition: H1 (h) (antagonist radioligand)
[12] = target: safety screen panel of human pharmacological targets (Homo sapiens, UniProt P31645); test: biochemical; conditions: read-out: percent inhibition: 5-HT transporter (h) (antagonist radioligand)
[13] = 10 micromolar test article, Adrenergic a1A receptor
[14] = 10 micromolar test article, Adrenergic α2A receptor
[15] = 10 micromolar test article, Benzodiazapine GABA channel
[16] = 10 micromolar test article, Calcium Channel L-Type, Dihydropyridine
[17] = 10 micromolar test article, Dopamine D2S receptor
[18] = 10 micromolar test article, N-Methyl-D-aspartate
[19] = 10 micromolar test article, Phosphodiesterase 4D2
[20] = 10 micromolar test article, Sodium channel
[21] = 10 micromolar test article, Voltage-gated potassium channel
[22] = 10 micromolar test article, results greater than 50% deemed significant

Chain of safety screen panel of human pharmacological targets (Homo sapiens, UniProt Q12809) (Q12809 whole entry): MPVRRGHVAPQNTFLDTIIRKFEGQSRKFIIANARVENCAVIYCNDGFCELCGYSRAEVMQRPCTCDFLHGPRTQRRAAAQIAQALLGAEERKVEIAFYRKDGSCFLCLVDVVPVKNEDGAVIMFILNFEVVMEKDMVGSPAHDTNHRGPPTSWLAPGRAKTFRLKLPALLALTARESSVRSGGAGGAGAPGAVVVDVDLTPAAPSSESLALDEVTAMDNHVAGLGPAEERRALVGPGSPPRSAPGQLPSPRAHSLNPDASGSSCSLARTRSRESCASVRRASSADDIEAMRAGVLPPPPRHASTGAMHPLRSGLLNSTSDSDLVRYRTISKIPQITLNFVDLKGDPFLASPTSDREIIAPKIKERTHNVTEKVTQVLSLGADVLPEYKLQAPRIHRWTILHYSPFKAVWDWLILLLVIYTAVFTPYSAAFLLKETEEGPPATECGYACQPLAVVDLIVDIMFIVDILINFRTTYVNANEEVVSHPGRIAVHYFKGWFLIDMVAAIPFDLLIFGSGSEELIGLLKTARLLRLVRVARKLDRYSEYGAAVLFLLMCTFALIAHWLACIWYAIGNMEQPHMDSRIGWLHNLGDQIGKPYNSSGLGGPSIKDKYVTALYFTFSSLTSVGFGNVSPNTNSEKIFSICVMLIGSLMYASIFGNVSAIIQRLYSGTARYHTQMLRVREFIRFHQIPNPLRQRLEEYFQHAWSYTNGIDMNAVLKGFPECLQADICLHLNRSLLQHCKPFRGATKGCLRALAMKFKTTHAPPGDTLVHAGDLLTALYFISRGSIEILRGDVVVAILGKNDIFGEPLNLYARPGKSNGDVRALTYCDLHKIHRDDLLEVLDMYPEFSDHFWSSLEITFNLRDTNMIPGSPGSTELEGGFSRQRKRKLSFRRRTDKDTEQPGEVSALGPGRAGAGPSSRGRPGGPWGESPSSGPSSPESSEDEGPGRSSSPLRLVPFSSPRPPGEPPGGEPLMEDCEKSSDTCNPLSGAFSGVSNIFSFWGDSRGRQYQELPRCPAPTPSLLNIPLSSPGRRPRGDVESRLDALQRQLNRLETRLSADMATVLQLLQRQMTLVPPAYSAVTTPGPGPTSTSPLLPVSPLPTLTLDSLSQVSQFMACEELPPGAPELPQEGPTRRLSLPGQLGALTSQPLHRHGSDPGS
Chain of safety screen panel of human pharmacological targets (Homo sapiens, UniProt P37288) (P37288 whole entry): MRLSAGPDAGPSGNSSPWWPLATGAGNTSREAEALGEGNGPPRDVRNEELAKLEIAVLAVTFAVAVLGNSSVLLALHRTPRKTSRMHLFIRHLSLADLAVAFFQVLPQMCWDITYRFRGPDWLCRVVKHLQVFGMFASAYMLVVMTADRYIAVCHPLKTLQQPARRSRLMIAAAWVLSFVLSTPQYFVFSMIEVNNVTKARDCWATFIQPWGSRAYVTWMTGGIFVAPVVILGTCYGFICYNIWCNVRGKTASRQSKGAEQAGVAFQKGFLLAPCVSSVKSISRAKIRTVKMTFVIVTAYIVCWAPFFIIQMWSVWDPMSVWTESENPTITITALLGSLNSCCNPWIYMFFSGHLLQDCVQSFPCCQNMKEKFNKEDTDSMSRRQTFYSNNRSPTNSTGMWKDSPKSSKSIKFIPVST
Chain of safety screen panel of human pharmacological targets (Homo sapiens, UniProt P29274) (P29274 whole entry): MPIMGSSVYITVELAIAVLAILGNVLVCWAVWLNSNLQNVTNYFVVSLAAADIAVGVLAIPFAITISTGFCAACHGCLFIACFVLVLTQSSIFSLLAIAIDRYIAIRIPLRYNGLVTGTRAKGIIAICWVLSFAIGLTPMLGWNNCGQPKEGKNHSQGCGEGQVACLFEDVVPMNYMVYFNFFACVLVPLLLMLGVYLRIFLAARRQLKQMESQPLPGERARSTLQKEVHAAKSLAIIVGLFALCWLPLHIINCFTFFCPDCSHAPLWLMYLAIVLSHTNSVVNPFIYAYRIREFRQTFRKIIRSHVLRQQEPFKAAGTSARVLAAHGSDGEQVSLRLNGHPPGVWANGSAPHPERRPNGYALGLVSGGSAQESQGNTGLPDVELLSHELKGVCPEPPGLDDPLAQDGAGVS
Chain of safety screen panel of human pharmacological targets (Homo sapiens, UniProt P31645) (P31645 whole entry): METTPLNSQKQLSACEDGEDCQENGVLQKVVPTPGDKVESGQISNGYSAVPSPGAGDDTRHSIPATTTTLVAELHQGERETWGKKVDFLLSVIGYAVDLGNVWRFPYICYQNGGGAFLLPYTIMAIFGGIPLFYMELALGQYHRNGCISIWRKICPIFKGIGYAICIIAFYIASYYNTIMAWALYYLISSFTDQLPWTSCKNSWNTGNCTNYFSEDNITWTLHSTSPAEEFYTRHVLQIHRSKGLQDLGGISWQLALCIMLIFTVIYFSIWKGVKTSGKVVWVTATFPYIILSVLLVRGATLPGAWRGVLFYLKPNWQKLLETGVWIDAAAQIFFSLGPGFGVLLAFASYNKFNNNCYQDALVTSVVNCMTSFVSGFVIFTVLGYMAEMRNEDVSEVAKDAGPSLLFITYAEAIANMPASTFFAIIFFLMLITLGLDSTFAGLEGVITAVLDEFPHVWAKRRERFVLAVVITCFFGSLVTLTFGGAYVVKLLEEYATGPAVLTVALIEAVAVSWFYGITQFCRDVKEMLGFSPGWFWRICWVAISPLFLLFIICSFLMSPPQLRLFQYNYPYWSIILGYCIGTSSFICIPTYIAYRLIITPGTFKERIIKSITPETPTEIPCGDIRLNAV
Chain of safety screen panel of human pharmacological targets (Homo sapiens, UniProt P23975) (P23975 whole entry): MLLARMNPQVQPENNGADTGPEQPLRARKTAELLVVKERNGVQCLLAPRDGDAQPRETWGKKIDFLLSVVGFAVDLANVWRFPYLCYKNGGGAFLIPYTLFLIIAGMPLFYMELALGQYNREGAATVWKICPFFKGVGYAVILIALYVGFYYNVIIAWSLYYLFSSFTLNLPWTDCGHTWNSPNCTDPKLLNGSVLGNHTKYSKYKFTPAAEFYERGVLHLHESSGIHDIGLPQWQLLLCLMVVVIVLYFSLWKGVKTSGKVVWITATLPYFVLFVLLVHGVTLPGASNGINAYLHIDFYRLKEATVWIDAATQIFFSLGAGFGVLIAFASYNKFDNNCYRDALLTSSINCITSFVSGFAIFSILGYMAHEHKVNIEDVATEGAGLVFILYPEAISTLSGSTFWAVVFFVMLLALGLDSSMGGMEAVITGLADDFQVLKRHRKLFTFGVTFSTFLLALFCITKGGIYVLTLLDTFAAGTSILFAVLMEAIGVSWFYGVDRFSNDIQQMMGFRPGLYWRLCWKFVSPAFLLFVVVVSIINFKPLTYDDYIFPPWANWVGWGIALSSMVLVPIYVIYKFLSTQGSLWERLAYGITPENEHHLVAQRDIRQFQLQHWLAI
Chain of safety screen panel of human pharmacological targets (Homo sapiens, UniProt P07550) (P07550 whole entry): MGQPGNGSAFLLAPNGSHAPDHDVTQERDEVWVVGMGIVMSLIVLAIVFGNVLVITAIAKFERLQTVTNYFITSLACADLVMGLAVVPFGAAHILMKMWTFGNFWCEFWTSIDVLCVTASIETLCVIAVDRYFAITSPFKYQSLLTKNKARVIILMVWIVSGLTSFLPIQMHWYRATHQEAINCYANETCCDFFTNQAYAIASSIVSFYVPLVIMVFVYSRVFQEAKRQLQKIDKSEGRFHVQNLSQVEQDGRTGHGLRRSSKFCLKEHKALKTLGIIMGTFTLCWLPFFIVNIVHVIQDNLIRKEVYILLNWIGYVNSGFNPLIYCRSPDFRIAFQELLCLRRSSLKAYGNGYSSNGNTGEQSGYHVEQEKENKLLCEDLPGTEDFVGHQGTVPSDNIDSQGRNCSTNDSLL
Chain of safety screen panel of human pharmacological targets (Homo sapiens, UniProt P35367) (P35367 whole entry): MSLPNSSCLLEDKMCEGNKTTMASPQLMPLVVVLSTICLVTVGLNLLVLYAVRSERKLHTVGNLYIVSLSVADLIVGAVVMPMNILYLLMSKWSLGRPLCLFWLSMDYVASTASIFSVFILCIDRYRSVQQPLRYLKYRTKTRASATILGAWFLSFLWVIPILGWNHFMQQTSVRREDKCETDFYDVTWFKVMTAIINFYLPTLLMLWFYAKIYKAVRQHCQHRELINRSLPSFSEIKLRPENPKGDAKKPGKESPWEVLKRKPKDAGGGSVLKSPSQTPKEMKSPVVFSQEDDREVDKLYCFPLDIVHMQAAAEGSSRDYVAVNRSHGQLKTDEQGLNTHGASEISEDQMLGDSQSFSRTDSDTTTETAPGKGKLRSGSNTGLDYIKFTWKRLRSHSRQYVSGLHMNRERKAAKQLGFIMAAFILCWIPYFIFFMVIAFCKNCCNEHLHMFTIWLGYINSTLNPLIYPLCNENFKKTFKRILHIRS

SMILES | change of share of total THC-glycosides in large intestine extracts versus small intestine extracts [3] | change of share of total THC-glycosides in small intestine extracts versus administered mixture [3] | inhibition at 10 µM [4] [%] | inhibition at 10 µM [5] [%] | inhibition at 10 µM [6] [%] | inhibition at 10 µM [7] [%] | inhibition at 10 µM [8] [%] | inhibition at 10 µM [9] [%] | inhibition at 10 µM [10] [%] | inhibition at 10 µM [11] [%] | inhibition at 10 µM [12] [%] | percent inhibition: Potassium Channel hERG (human)- [3H] Dofetilide ([1]; 10 micromolar test article) [%] | percent inhibition: alpha 1A(h) (antagonist radioligand) [2, 13] [%] | percent inhibition: alpha 2A (h) (antagonist radioligand) [2, 14] [%] | percent inhibition: BZD (central) (agonist radioligand) [2, 15] [%] | percent inhibition: Ca2+ channel (L. dihydropyridine site) (antagonist radioligand) [2, 16] [%] | percent inhibition: D2S (h) (agonist radioligand) [2, 17] [%] | percent inhibition: NMDA (antagonist radioligand) [2, 18] [%] | percent inhibition: PDE4D2 (h) [2, 19] [%] | percent inhibition: Na+ channel (site 2) (antagonist radioligand) [2, 20] [%] | other results
CCCCCc1cc(O)c2c(c1)OC(C)(C)[C@@H]1CCC(C)=C[C@@H]21 [VB301, Δ9-Terahydrocannabinol, reference compound] | appreciable amounts | below the limit of detection | 13 | 14 | 87 | -12 | 63 | 90 | -2 | 8 | 91 |  |  |  |  |  |  |  |  |  | percent inhibition: Potassium Channel hERG (human)- [3H] Dofetilide ([1]; human): 67%; percent inhibition: BZD (central) (agonist radioligand) [2]: 2%; percent inhibition: Ca2+ channel (L. dihydropyridine site) (antagonist radioligand) [2]: 59%; percent inhibition: D2S (h) (agonist radioligand) [2]: 13%; percent inhibition: KV channel (antagonist radioligand) [2]: 5%; percent inhibition: NMDA (antagonist radioligand) [2]: 10%; percent inhibition: Na+ channel (site 2) (antagonist radioligand) [2]: 65%; percent inhibition: PDE4D2 (h) [2]: -11%; percent inhibition: alpha 1A(h) (antagonist radioligand) [2]: 6%; percent inhibition: alpha 2A (h) (antagonist radioligand) [2]: 94%; number of the 44 pharmacological targets whose binding is significantly inhibited or disrupted ([2]; human): 16
CCCCCc1cc(O[C@@H]2O[C@H](CO)[C@@H](O)[C@H](O)[C@H]2O)c2c(c1)OC(C)(C)[C@@H]1CCC(C)=C[C@@H]21 [VB302, Δ9THC-1-O-glucopyranoside] | further increases | increases | 4 | -21 | -31 | 2 | -11 | 16 | 8 | 10 | -1 | -23 | -5 | 0 | -10 | 22 | 22 | 8 | -8 | 13 | percent inhibition: KV channel (antagonist radioligand) [2, 21]: 1%; number of the 44 pharmacological targets whose binding is significantly inhibited or disrupted [2, 22]: did not significantly alter any of the targets
CCCCCc1cc(O[C@@H]2O[C@H](CO[C@@H]3O[C@H](CO)[C@@H](O)[C@H](O)[C@H]3O)[C@@H](O[C@@H]3O[C@H](CO)[C@@H](O)[C@H](O)[C@H]3O)[C@H](O)[C@H]2O)c2c(c1)OC(C)(C)[C@@H]1CCC(C)=C[C@@H]21 [VB311] | further decreases | sharp decrease | 10 | 9 | 17 | -1 | -4 | 20 | 7 | -7 | 3 | -10 | -3 | 8 | 16 | -7 | -6 | 3 | -6 | 5 | percent inhibition: KV channel (antagonist radioligand) [2, 21]: -5%; number of the 44 pharmacological targets whose binding is significantly inhibited or disrupted [2, 22]: did not significantly alter any of the targets
